Measured values from US6020374A, “Biologically active synthetic dye compounds” (priority 1998, dated 2000).

Experiments:
[1] = tested on: 185 kDa protein(s) (p185); test: Tyrosine phosphorylation of p185 in MCF-7 cells (anti-phosphotyrosine immunoblot); format: cell-based
Protocol: FIG. 1 is the effect of ATA and EB on tyrosine phosphorylation: MCF-7 cells, grown in 35 mm dishes were solubilized in Buffer A (a) or Buffer B (b-c). The solubilized cells were subjected to 7.5% SDS-PAGE and immunoblotted with an anti-phosphotyrosine antibody. (a) Cells treated for 5 mins. with ATA, EB, each at 300 μg/ml, IGF-1 at 20 ng/ml, or without additives (CON); (b) Cells treated with 300 μg/ml ATA for the indicated times; (c) Cells treated with 30 μg/ml EB for the indicated times; (d) Cells treated for 5 mins. with the indicated concentrations of ATA; (e) Cells treated for 5 mins. with the indicated concentrations of EB. Molecular mass markers (in kDa) are indicated on the right.
FIG. 2 is the effect of ATA and vanadate on the IGF-1 stimulated tyrosine phosphorylation of p185: A--Cells treated for 5 mins. with the indicated concentrations of IGF-1 in the presence or absence of 300 μg/ml ATA; B--Cells pre-incubated for 3 hours with or without 50 μM vanadate were incubated for 5 mins. with ATA, EB each at 300 μg/ml or with 10 ng/ml IGF-1 in the presence or absence of vanadate. Cytosols extracted in Buffer B were analyzed by immunoblotting with anti-phosphotyrosine antibody as in FIG. 1.
FIG. 8 is the effect of fractionated ATA on p185 phosphorylation: A--Crude ATA was separated on a Bio-Rad P-4 column and the combined void volume was then gel filtrated on a column of Bio-Rad P-10. The column was calibrated with the following molecular weight markers: DB-Dextran blue; CC-cytochrome C: Ins-insulin; B12-Vitamin B12. B--MCF-7 cells were incubated for 5 mins. with the indicated fractions of ATA (eluted from the P-10 column shown in A), crude ATA, each at 200 μg/ml or IGF-1 at 20 ng/ml. Cytosols, solubilized in Buffer B were subjected to 7.5% SDS-PAGE and immunoblotted with phosphotyrosine antibody.
(§1) MCF-7 cells were grown in 35 or 100 mm dishes in DMEM with 5% bovine fetal serum. Rat hepato FaO cells were grown in RPMI 1640 medium supplemented with 10% fetal calf serum. Subconfluent monolayers of MCF-7 cells or FaO cells, were deprived of serum for 20 hours prior to each experiment. The medium was removed, and cells were incubated at 37° C. under the conditions as indicated for each experiment. The reaction was terminated by removing the medium and freezing the monolayers with liquid nitrogen. In some experiments, cells were preincubated with 50 μM sodium orthovanadate for 3 hours.
Cells were solubilized at 4° C. with 0.2 ml/35 mm dish or 2 ml/100 mm dish of the indicated buffer. The solubilized cells were scraped and sedimented by centrifugation at 12,000×g for 30 mins. at 4° C. Aliquots of the supernatants were normalized for protein, mixed with concentrated (5×) Laemmli sample buffer, boiled for 10 mins. and resolved on 7.5 or 12% SDS-PAGE under reducing conditions.
(§2) Nitrocellulose blots of proteins were incubated with the antibodies, and proteins were detected by enhanced chemiluminescence using horseradish peroxidase-labeled protein A, horseradish peroxidase-labeled anti rabbit IgG or horseradish peroxidase-labeled anti-mouse IgG.

[2] = biological target: T1, IR (Rattus norvegicus, UniProt P15127); test: Tyrosine phosphorylation of IR in FaO cells; format: cell-based; settings: 3 hour preincubation with vanadate, 5 min. incubations with EB and insulin
T1 construct: determined in the rat hepatoma cell line FaO; endogenous in cells; host or cells: FaO (rat hepatoma)
T1 sequence (P15127 764-1383 limits assumed): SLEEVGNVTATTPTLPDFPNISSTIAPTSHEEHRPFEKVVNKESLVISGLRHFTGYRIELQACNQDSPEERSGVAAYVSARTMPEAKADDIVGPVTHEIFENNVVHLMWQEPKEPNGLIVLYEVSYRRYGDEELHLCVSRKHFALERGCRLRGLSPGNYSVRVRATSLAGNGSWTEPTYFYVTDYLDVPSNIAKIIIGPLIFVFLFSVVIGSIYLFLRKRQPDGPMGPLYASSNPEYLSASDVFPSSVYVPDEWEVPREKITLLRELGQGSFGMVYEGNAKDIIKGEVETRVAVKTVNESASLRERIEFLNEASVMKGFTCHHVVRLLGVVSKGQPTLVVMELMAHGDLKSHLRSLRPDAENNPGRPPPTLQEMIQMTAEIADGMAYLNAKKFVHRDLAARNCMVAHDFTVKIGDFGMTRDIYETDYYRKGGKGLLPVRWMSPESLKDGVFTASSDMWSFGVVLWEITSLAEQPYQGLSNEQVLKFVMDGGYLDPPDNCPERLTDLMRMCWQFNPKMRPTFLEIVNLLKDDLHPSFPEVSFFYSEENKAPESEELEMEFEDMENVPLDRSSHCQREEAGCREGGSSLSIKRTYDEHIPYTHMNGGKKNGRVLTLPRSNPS
T1 sequence (P15127 27-759 limits assumed): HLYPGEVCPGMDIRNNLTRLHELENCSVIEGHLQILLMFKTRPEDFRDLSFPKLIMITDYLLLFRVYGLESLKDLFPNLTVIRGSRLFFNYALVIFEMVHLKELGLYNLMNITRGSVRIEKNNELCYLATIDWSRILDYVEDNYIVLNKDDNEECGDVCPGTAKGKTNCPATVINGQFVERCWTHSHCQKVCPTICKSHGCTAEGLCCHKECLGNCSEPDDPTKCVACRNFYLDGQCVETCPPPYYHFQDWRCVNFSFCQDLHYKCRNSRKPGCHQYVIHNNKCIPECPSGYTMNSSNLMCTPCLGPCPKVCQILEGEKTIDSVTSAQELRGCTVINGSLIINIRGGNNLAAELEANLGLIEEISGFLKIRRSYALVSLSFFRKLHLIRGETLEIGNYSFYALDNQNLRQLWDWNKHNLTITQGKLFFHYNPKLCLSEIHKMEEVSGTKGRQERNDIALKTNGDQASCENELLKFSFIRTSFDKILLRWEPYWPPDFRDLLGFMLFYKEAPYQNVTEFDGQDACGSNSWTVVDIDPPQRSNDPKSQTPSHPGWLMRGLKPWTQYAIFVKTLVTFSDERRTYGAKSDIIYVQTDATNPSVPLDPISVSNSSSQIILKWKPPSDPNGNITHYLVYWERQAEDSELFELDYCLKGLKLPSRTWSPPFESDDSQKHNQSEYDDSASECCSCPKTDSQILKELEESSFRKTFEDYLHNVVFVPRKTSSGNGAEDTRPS
Protocol: (§3) FIG. 9 is the tyrosine phosphorylation of the IR cascade in Fao cells: A--Immunoblot analysis: Fao cells were deprived of serum for 20 hours, then incubated with EB, ATA, at 200 μg/ml or insulin at 600 ng/ml for 5 mins. Cell extracts were subjected to immunoprecipitation with antibodies to: IR β-subunit (αIR), IRS-1 (αIRS-1) and to IRS-2 (αIRS-2). The immunoprecipitates and total cell extracts were analyzed by SDS-PAGE. Proteins were transferred to nitrocellulose papers, and phosphotyrosine containing proteins were probed with anti-phosphotyrosine antibodies (αP-Tyr), antibody to the 85-kDa subunit of PI3-kinase (αp85) and antibodies to active MAPK (α active MAPK). The immunoblots were visualized by ECL (Amersham).
B--Kinetics of IR phosphorylation: Cells were treated either with 200 μg/ml EB for the indicated times (top panel) or with the indicated concentrations of EB for 5 mins. (middle panel). A 3 hour preincubation with vanadate preceded the 5 min. incubations with EB and insulin (bottom panel).
as §1
(§4) Cells were solubilized in Buffer A or C. Extracts were immunoprecipitated at 4° C. with antibodies to IRS-1, IRS-2, IGF-1 or IR receptor or Grb2, adsorbed on protein A-Sepharose beads. The immunocomplexes were pelleted by centrifugation at 12,000×g and washed twice with Buffer A, and twice with Buffer A containing 0.1% Triton x-100. The pellets were then suspended in Laemmli sample buffer and resolved on 7.5% SDS-PAGE.
as §2
The ability of EB and ATA to phosphorylate the IR was determined in the rat hepatoma cell line FaO. […] Phosphorylation is maximal after a 1 min. exposure to 70 μg/ml of EB (FIG. 9B, top and middle panels).

[3] = tested on: MCF-7 cells; test: Cell death estimation, cycloheximide-exposed MCF-7 cells (trypan blue); format: cell-based; settings: 30 μg CX, 48 hours, IGF-1 20 μg/ml
Protocol: Subconfluent cultures of MCF-7 cells in 35 mm dishes, were deprived of serum for 20 hours and then exposed to 30 μg/ml cycloheximide in the presence or absence of increasing concentrations of fractionated ATA, crude ATA or EB. After 48 hours, the cells were detached with trypsin. The medium and the detached cells were pooled and centrifuged at 1000×g for 10 mins. Cell viability was estimated by adding an equivalent volume of trypan blue solution to an aliquot of suspended cells. Stained and unstained cells were counted on a hemocytometer (10^3 cells were counted for each determination).
Subconfluent, 20 hours starved MCF-7 cells were exposed to 30 μg/ml
of cycloheximide in the presence of increasing
concentrations of fractionated ATA (0, 6, 12, 25, 50 μg/ml). After
48 hours, percent of dead cells was
determined as described under "Experimental procedures". In the
presence of cycloheximide only, 60-70% of
the cells were dead after 48 hours.
Cultures of […] cells were exposed to 30 μg CX for 48 hours in the presence of EB, ATA, IGF-1, or nothing.

[4] = tested on: IRS-1; test: IRS-1 tyrosine phosphorylation and association with p85/Grb2 in MCF-7 cells; format: cell-based; settings: 5 mins., ATA or EB 300 μg/ml, IGF-1 20 ng/ml
Protocol: FIG. 3 is the effect of ATA and EB on tyrosine phosphorylation or IRS-1: MCF-7 cells grown in 100 mm dishes, were treated with ATA or EB, each at 300 μg/ml, or 20 ng/ml IGF-1 for 5 mins. Total cell extracts, solubilized in Buffer A, were subjected to immunoprecipitation with antibodies to IRS-1 (a) or Grb2 (b). The immunocomplexes, precipitated with protein G-Sepharose beads, were subjected to 7.5% SDS-PAGE followed by immunoblotting with a phosphotyrosine antibody, an antibody to the 85-kDa subunit of PI3-kinase or antibody to IRS-1.
as §4, §2
(§5) MCF-7 cells were stimulated with ATA, EB or IGF-1, solubilized and immunoprecipitated with anti IRS-1 or IRS-2 antibodies, separated by SDS-PAGE and immunoblotted with anti-phosphotyrosine antibody. […] The association of IRS-1 with Grb-2 was evaluated in lysates from treated cells which were immunoblotted with antibodies to either phosphotyrosine or IRS-1.

[5] = tested on: IRS-2; test: IRS-2 association with p85 of PI3-kinase in MCF-7 cells; format: cell-based; settings: 5 mins., ATA or EB 300 μg/ml, IGF-1 20 ng/ml
Protocol: FIG. 4 is the effect of ATA and EB on tyrosine phosphorylation of IRS-2: MCF-7 cells were treated as in FIG. 3. Total cell extracts, solubilized in Buffer C, were immunoprecipitated with an antibody to IRS-2. The immunocomplexes, precipitated with protein A-Sepharose beads were subjected to 7.5% SDS-PAGE, followed by immunoblotting with a phosphotyrosine antibody and an antibody to the 85-kDA subunit of PI3-kinase.
as §4, §2, §5

[6] = tested on: MAPK-1 (44 kDa) and MAPK-2 (42 kDa); test: Activation of MAPKs in MCF-7 cells (anti-active MAPK immunoblot); format: cell-based; settings: 5 mins., ATA, EB each at 300 μg/ml, IGF-1 20 or 40 ng/ml
Protocol: FIG. 7 is the effect of ATA and EB on activation of MAPKs: MCF-7 cells were treated for 5 mins. with ATA, EB, each at 300 μg/ml, 20 ng/ml or 40 ng/ml IGF-1. Cell lysates, solubilized in Buffer C, were subjected to 12% SDS-PAGE and immunoblotted with an anti-active MAPK antibody. The membrane, after ECL detection, was stripped of bound antibody and blotted with an anti-MAPK antibody.
as §2
The activated forms of MAPKs were detected by anti-active MAPK immunoblotting in the MCF-7 cell's lysates. […] Blotting with anti MAPKs antibodies confirms that similar amounts of MAPKs were present in treated and non-treated cells.

[7] = tested on: IRS-1; test: IRS-1 tyrosine phosphorylation and association with p85 in FaO cells; format: cell-based, rat; settings: 5 mins., EB 200 μg/ml, insulin 600 ng/ml
Protocol: as §3
as §1, with “The reaction was terminated by removing the medium and freezing the monolayers with liquid nitrogen. In some experiments, cells were preincubated with 50 μM sodium orthovanadate for 3 hours.” left out
(§6) Nitrocellulose blots of proteins were incubated with the antibodies, and proteins were detected by enhanced chemiluminescence using horseradish peroxidase-labeled protein A, horseradish peroxidase-labeled anti rabbit IgG or horseradish peroxidase-labeled anti-mouse IgG. […]

[8] = tested on: IRS-2; test: IRS-2 tyrosine phosphorylation and association with p85 in FaO cells; format: cell-based, rat; settings: 5 mins., EB 200 μg/ml, insulin 600 ng/ml
Protocol: as §3
as §1, with “The reaction was terminated by removing the medium and freezing the monolayers with liquid nitrogen. In some experiments, cells were preincubated with 50 μM sodium orthovanadate for 3 hours.” left out
as §6

[9] = tested on: MAPKs 1 and 2; test: Activation of MAPKs in FaO cells; format: cell-based, rat; settings: 5 mins., EB 200 μg/ml, insulin 600 ng/ml
Protocol: as §3, §2
In the rat hepatoma cell line FaO, EB and insulin, enhanced IRS-1 and IRS-2 tyrosine phosphorylation and their association with the 85-kDa regulatory subunit of the PI-kinase (FIG. 9A). PI3-kinase activity increases following its association with IRS-1 and IRS-2 (FIG. 9C). MAPKs 1 and 2 were activated by EB and insulin (FIG. 9A).

[10] = tested on: IR, IRS-1 and the 85-kDa regulatory subunit of PI3-kinase; test: In vivo tyrosine phosphorylation of the IR cascade in rat liver; settings: Sprague-Dawley male rats, portal vein injection, EB 20 mg/rat, insulin 1 u/rat
Protocol: A--Immunoblot analysis. Rat liver extracts were subjected to immunoprecipitation and blotting with the indicated antibodies, as described in the legend to FIG. 9A.
(§7) EB (20 mg/rat) or insulin (1 u/rat) was injected into about 120 g weighing Sprague-Dawley male rats, via the portal vein. Control rats were injected with saline (SAL) alone. The rats were killed and the livers excised and frozen in liquid nitrogen at the indicated times.

[11] = tested on: PI3-kinase; test: In vivo PI3-kinase activity in rat liver; settings: Sprague-Dawley male rats, portal vein, 5 mins. after injection, EB 20 mg/rat, insulin 1 u/rat
Protocol: B--Induction of PI3-kinase. PI3-kinase activity, 5 mins. after injection was assayed as described in FIG. 9C. The results are representative of 2 to 4 independent experiments.
as §7

[12] = tested on: 3T3 L1 adipocytes; test: 2-deoxyglucose uptake in 3T3 L1 adipocytes; format: cell-based; settings: 20 mins., EB, ATA 200 μg/ml, insulin 600 ng/ml
Protocol: (§8) FIG. 11 is the metabolic effects in 3T3 L1 adipocytes: Fully differentiated 3T3 L1 adipocytes were incubated with EB, ATA or fuchsin (FUCH) each at 200 μg/ml, or with 600 ng/ml of insulin for 20 mins. (A, B, C) or 5 mins. (D). CON indicates no additive.
A--2-deoxyglucose uptake. Hexose uptake was measured for 10 mins. using 50 μM 2-deoxy-(^3 H) glucose (1 μCi/ml). Non-specific uptake was determined in the presence of cytochalasin B (50 μM).

[13] = tested on: 3T3 L1 adipocytes; test: Glycogen synthesis in 3T3 L1 adipocytes; format: cell-based; settings: 20 mins., EB, ATA 200 μg/ml, insulin 600 ng/ml
Protocol: as §8
B--Glycogen synthesis. Cells were incubated with (^14 C)-glucose for 10 mins. Radioactivity was determined in the precipitated glycogen fraction.

[14] = tested on: 3T3 L1 adipocytes; test: Lipogenesis in 3T3 L1 adipocytes; format: cell-based; settings: 20 mins., EB, ATA 200 μg/ml, insulin 600 ng/ml
Protocol: as §8
C--Lipogenesis. Cells were incubated with 5 mM(U-^14 C) glucose (1 μCi/ml) for 60 mins. Radioactivity was determined in the cellular lipid fraction.

[Na+].[Na+].[Na+].[O]=[V]([O-])([O-])[O-] [Vanadate, sodium orthovanadate, reference compound]
Effect on phosphorylation of p185 induced by IGF-1, ATA and EB ([1]; MCF-7 cells pre-incubated 3 hours with 50 μM vanadate): markedly enhanced | Effect on IR phosphorylation induced by insulin [2]: enhances

IGF-1: Recombinant human IGF-1 from Boehringer Mannheim
Tyrosine phosphorylation of a 185 kDa protein(s) ([1]; MCF-7 cells, 5 mins., ATA, EB each at 300 μg/ml, IGF-1 at 20 ng/ml): enhanced tyrosine phosphorylation of a 185 kDa protein(s) | pp185 (arbitrary units) ([1]; MCF-7 cells, 5 mins., IGF-1 at 20 ng/ml, scanned autoradiogram from FIG. 8B, Control 100): 1,751 arbitrary units | Percent dead cells [3]: 15 ± 4% | Association of IRS-1 with Grb-2 [4]: IRS-1 co-precipitated with Grb2 | Association of p85 subunit of PI3-k with IRS-1 [4]: p85 precipitates with IRS-1 | Phosphorylation of IRS-1 [4]: stimulated the phosphorylation of IRS-1 | Association of p85 subunit of PI3-k with IRS-2 [5]: p85 precipitates | Phosphorylated (active) isoforms MAPK-1 and MAPK-2 [6]: clearly detected

insulin: The hormone insulin
IRS-1 tyrosine phosphorylation and association with the 85-kDa regulatory subunit of PI-kinase [7]: enhanced | IRS-2 tyrosine phosphorylation and association with the 85-kDa regulatory subunit of PI-kinase [8]: enhanced | Activation of MAPKs 1 and 2 [9]: activated | Tyrosine phosphorylation of IR, IRS-1 and 85-kDa subunit of PI3-kinase in liver [10]: phosphorylated tyrosines of IR, IRS-1 and the 85-kDa of the regulatory subunit of PI3-kinase | PI3-kinase activity in liver [11]: increased | Glucose uptake [12]: increase glucose uptake | Glycogen synthesis [13]: increase | Lipogenesis [14]: increase
